In experiment [1] the test system is U118MG. Nature of the experiment: WST-1 proliferation assay, U118MG. The format is cell-based, human. As to the method:
(§1) AP-121 was prepared as 5 mM stock solution in distilled sterile water, Temozolomide (TMZ) (Haorui Pharma-Chem, Inc., Edison, N.J.) was prepared as 100 mM in sterile filtrated DMSO; Adriamycin (ADR) (Sigma) was prepared as 1 mM in distilled sterile water; Camptothecin (CTP) (Sigma) was prepared as 10 mM solution in 0.1 N NaOH; Tarceva (Proteinkinase, Germany) was prepared as 5 mM solution in sterile DMSO. All compound stocks were kept at −20° C. 2000 cells were plated in each well of 96-well flat bottom plates, and incubated overnight at 37 °C in 5% CO2. The growth of plated cells was measured by adding […] of WST-1 reagent (Roche Applied Sciences, Germany) to 3 control wells and measuring the absorbance at 650 nm and at 450 nm, respectively, with a SpectraMax250 plate reader. […] After this incubation, VVST-1 reagent was added to the wells and OD650-OD450 values were calculated as before. six wells were assayed for each conditions and standard deviation was determined: all experiments were performed at least three times independently. […] Six different concentrations of each drug were used in combinations index measurements and compared to +/− cells, and compared to controls without compound. Each combination was repeated 6 times at 2 different time points (24 and 96 hours), each of the above experiments was repeated 3 times to obtain valid results.

In experiment [2] the test system is T98G. Nature of the experiment: WST-1 proliferation assay, T98G. The note with it: Homo sapiens. The class given is cell-based. On the procedure: as §1, with “compound.” for “compound. Each combination was repeated 6 times at 2 different time points (24 and 96 hours), each of the above experiments was repeated 3 times to obtain valid results.”
On the technique in general: Formazan colour is commonly taken as a measure of viable cells.

For orientation: IC50 means the midpoint of a concentration-inhibition curve. Regarding `CCCCCCCCCCCCCCCCCCOCC(COP(=O)([O-])OCC[N+](C)(C)C)OC` (racemic) [AP-121, 1-O-octadecyl-2-O-methyl-glycero-3-phosphocholine], the IC50 was found to be 3.6 µM in experiment [1] (Homo sapiens, U-118-MG) and 4.1 µM in experiment [2]. Also, the EC50 in experiment [1] (Homo sapiens, U-118-MG, single agent or compound mixture as labelled (arrays A2, A1), read-out: ED50 (the source's name)) was 4.8 µM. In addition, the normalized ED50 (arrays B2, B1) in experiment [1] (ratio to the largest value) is 0.71.

Source of the values: patent publication US8324188B2, “Combinations of ET-18-O-CH3and anti-cancer agents for the treatment of cancer” (priority 2006, dated 2012).
